Test results from US5852210A, “Cinnamic acid derivatives” (G. D. Searle & Co., priority 1997, dated 1998).
Counter-ions that a name gives are not always drawn.

Columns and labels:
[1] = biological target: T1, Human vitronectin receptor (αv β3) (Homo sapiens, UniProt P05106+P06756); assay: Vitronectin adhesion assay (solid phase receptor assay, αvβ3); type: binding; details: inhibition of binding of biotinylated human vitronectin (1 nM) to purified receptor; Table I; read-out: AvB3 IC50
T1 construct: Human vitronectin receptor (αv β3) was purified from human placenta; from tissue; host or cells: human placenta
Experimental: (§1) The activity of the compounds of the present invention was tested in the following assays.
Human vitronectin receptor (αv β3) was purified from human placenta as previously described [Pytela et al., Methods in Enzymology, 144:475-489 (1987)]. Human vitronectin was purified from fresh frozen plasma as previously described [Yatohgo et al., Cell Structure and Function, 13:281-292 (1988)]. Biotinylated human vitronectin was prepared by coupling NHS-biotin from Pierce Chemical Company (Rockford, Ill.) to purified vitronectin as previously described [Charo et al., J. Biol. Chem., 266(3):1415-1421 (1991)]. Assay buffer, OPD substrate tablets, and RIA grade BSA were obtained from Sigma (St. Louis, Mo.). Anti-biotin antibody was obtained from Calbiochem (La Jolla, Calif.). Linbro microtiter plates were obtained from Flow Labs (McLean, Va.). ADP reagent was obtained from Sigma (St. Louis, Mo.).
(§2) Solid Phase Receptor Assays
This assay was essentially the same as previously reported [Niiya et al., Blood, 70:475-483 (1987)]. The purified human vitronectin receptor (αv β3) was diluted from stock solutions to […] in Tris-buffered saline containing 1.0 mM Ca^++, Mg^++, and Mn^++, pH 7.4 (TBS^+++). The diluted receptor was immediately transferred to Linbro microtiter plates at 100 μL/well (100 ng receptor/well). The plates were sealed and incubated overnight at 4° C. to allow the receptor to bind to the wells. All remaining steps were at room temperature. The assay plates were emptied and 200 μL, of 1% RIA grade BSA in TBS^+++ (TBS^+++ /BSA) were added to block exposed plastic surfaces. Following a 2 hour incubation, the assay plates were washed with TBS^+++ using a 96 well plate washer. Logarithmic serial dilution of the test compound and controls were made starting at a stock concentration of 2 mM and using 2 nM biotinylated vitronectin in TBS^+++ /BSA as the diluent. This premixing of labeled ligand with test (or control) ligand, and subsequent transfer of 50 μL aliquots to the assay plate was carried out with a CETUS Propette robot; the final concentration of the labeled ligand was 1 nM and the highest concentration of test compound was 1.0×10^-4 M. The competition occurred for two hours after which all wells were washed with a plate washer as before. Affinity purified horseradish peroxidase labeled goat anti-biotin antibody was diluted 1:3000 in TBS^+++ /BSA and 125 μL were added to each well. After 30 minutes, the plates were washed and incubated with OPD/H2 O2 substrate in 100 mM/L Citrate buffer, pH 5.0. The plate was read with a microtiter plate reader at a wavelength of 450 nm and when the maximum-binding control wells reached an absorbance of about 1.0, the final A450 were recorded for analysis. The data were analyzed using a macro written for use with the EXCEL™ spreadsheet program. The mean, standard deviation, and % CV were determined for duplicate concentrations. The mean A450 values were normalized to the mean of four maximum-binding controls (no competitor added) (B-MAX). The normalized values were subjected to a four parameter curve fit algorithm [Rodbard et al., Int.

[2] = biological target: T2, Human fibrinogen receptor (αIIb β3) (Homo sapiens, UniProt P05106+P08514); assay: Purified IIb/IIIa receptor assay (solid phase receptor assay); details: inhibition of binding of biotinylated human vitronectin (1 nM) to purified receptor; Table I
T2 construct: Human fibrinogen receptor (αIIb β3) was purified from outdated platelets; from tissue; host or cells: human outdated platelets
Experimental: as §1
Human fibrinogen receptor (αIIb β3) was purified from outdated platelets. (Pytela, R., Pierschbacher, M. D., Argraves, S., Suzuki, S., and Rouslahti, E. "Arginine-Glycine-Aspartic acid adhesion receptors", Methods in Enzymology 144(1987):475-489.) Human vitronectin was purified from fresh frozen plasma as described in Yatohgo, T., Izumi, M., Kashiwagi, H., and Hayashi, M., "Novel purification of vitronectin from human plasma by heparin affinity chromatography," Cell Structure and Function 13(1988):281-292. Biotinylated human vitronectin was prepared by coupling NHS-biotin from Pierce Chemical Company (Rockford, Ill.) to purified vitronectin as previously described. (Charo, I. F., Nannizzi, L., Phillips, D. R., Hsu, M. A., Scarborough, R. M., "Inhibition of fibrinogen binding to GP IIb/IIIa by a GP IIIa peptide", J. Biol. Chem. 266(3) (1991): 1415-1421.) Assay buffer, OPD substrate tablets, and RIA grade BSA were obtained from Sigma (St. Louis, Mo.). Anti-biotin antibody was obtained from Calbiochem (La Jolla, Calif.). Linbro microtiter plates were obtained from Flow Labs (McLean, Va.). ADP reagent was obtained from Sigma (St. Louis, Mo.).
as §2
This assay is essentially the same reported in Niiya, K., Hodson, E., Bader, R., Byers-Ward, V. Koziol, J. A., Plow, E. F. and Ruggeri, Z. M., "Increased surface expression of the membrane glycoprotein IIb/IIIa complex induced by platelet activation: Relationships to the binding of fibrinogen and platelet aggregation", Blood 70 (1987):475-483. The purified human fibrinogen receptor (αIIb β3) was diluted from stock solutions to 1.0 μg/mL in Tris-buffered saline containing 1.0 mM Ca^++, Mg^++, and Mn^++, pH 7.4 (TBS^+++). The diluted receptor was immediately transferred to Linbro microtiter plates at 100 μL/well (100 ng receptor/well). The plates were sealed and incubated overnight at 4° C. to allow the receptor to bind to the wells. All remaining steps were at room temperature. The assay plates were emptied and 200 μL of 1% RIA grade BSA in TBS^+++ (TBS^+++ /BSA) were added to block exposed plastic surfaces. Following a 2 hour incubation, the assay plates were washed with TBS^+++ using a 96 well plate washer. Logarithmic serial dilution of the test compound and controls were made starting at a stock concentration of 2 mM and using 2 nM biotinylated vitronectin in TBS^+++ /BSA as the diluent. This premixing of labeled ligand with test (or control) ligand, and subsequent transfer of 50 μL aliquots to the assay plate was carried out with a CETUS Propette robot; the final concentration of the labeled ligand was 1 nM and the highest concentration of test compound was 1.0×10^-4 M. The competition occurred for two hours after which all wells were washed with a plate washer as before. Affinity purified horseradish peroxidase labeled goat anti-biotin antibody was diluted 1:3000 in TBS^+++ /BSA and 125 μL were added to each well. After 30 minutes, the plates were washed and incubated with […]/H2 O2 substrate in 100 mM/L citrate buffer, pH 5.0. The plate was read with a microtiter plate reader at a wavelength of 450 nm and when the maximum-binding control wells reached an absorbance of about 1.0, the final A450 were recorded for analysis. The data were analyzed using a macro written for use with the EXCEL™ spreadsheet program. The mean, standard deviation, and % CV were determined for duplicate concentrations. The mean A450 values were normalized to the mean of four maximum-binding controls (no competitor added) (B-MAX). The normalized values were subjected to a four parameter curve fit algorithm, [Robard et al., Int.

T1 sequence (P06756 31-889 limits assumed): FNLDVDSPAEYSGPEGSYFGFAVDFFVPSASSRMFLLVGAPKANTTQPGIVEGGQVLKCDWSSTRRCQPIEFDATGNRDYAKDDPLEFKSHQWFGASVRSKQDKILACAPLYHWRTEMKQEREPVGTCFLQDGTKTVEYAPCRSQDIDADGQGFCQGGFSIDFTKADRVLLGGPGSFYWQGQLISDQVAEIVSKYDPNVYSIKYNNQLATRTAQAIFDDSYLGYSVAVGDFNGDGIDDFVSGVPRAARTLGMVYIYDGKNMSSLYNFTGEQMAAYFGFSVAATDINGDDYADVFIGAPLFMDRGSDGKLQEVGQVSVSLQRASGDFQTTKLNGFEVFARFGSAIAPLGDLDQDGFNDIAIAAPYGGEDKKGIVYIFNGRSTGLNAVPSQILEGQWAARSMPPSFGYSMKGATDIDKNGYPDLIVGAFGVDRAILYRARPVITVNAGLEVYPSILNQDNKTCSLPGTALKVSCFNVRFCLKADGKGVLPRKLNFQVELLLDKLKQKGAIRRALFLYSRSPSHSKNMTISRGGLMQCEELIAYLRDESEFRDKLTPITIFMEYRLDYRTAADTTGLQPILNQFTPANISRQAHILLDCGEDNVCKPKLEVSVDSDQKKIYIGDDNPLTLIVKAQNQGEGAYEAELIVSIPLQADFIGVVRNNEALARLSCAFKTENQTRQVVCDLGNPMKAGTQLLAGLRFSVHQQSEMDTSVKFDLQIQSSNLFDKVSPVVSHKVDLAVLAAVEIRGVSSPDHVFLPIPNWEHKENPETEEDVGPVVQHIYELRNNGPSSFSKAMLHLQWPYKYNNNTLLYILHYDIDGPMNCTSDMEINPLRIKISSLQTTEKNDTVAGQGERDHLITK
T1 sequence (P06756 891-1048 limits assumed): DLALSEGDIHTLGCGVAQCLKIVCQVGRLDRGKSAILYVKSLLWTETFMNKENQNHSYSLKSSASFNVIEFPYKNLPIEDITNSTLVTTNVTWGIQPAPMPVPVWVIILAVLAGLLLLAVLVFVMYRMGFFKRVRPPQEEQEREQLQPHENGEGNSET
T1 sequence (P05106 27-788): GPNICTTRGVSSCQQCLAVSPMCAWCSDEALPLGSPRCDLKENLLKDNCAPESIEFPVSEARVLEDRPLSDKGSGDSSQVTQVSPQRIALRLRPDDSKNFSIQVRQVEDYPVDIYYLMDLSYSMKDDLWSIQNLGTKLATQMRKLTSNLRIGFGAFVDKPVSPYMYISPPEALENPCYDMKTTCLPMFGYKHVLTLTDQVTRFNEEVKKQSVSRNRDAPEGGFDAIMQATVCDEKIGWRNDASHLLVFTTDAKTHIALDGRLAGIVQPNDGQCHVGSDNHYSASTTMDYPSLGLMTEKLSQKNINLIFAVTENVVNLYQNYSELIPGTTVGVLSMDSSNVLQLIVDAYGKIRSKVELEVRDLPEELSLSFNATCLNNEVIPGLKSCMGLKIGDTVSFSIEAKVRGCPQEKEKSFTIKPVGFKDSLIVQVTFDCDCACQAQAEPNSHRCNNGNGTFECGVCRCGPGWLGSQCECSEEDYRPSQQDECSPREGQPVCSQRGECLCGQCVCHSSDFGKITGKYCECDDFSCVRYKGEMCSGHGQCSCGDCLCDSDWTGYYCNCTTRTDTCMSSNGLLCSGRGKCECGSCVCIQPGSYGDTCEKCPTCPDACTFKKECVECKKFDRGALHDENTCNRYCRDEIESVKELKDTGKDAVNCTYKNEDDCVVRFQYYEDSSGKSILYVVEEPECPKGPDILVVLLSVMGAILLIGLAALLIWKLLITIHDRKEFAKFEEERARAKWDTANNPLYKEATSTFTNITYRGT
T2 sequence (P08514 32-887 limits assumed): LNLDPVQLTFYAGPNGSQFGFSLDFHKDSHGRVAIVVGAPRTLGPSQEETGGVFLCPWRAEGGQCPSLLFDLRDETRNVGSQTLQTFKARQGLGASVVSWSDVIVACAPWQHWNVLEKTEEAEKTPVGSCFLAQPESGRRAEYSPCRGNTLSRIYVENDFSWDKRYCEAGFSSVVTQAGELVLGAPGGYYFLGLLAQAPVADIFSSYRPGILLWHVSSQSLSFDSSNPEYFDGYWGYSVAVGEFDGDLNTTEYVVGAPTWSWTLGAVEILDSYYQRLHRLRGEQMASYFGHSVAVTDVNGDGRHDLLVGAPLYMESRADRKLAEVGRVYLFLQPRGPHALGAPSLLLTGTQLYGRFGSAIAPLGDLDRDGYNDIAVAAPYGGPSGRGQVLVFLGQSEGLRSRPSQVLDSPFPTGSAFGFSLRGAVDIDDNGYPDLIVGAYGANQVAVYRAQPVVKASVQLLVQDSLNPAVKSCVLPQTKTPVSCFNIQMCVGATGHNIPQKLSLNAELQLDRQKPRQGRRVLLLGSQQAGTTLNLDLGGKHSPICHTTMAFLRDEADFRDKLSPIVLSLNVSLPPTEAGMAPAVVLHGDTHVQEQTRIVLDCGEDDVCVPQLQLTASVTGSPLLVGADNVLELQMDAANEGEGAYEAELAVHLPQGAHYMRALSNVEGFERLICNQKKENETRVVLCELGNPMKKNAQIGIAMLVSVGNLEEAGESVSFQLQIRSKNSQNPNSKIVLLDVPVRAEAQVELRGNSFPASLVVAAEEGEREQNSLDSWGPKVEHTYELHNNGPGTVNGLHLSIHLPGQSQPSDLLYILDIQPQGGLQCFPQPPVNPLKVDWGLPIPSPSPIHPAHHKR
T2 sequence (P08514 891-1039 limits assumed): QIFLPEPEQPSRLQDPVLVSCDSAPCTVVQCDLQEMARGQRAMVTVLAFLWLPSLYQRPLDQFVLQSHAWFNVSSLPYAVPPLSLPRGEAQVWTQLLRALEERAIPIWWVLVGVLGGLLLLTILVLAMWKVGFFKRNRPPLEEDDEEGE
T2 sequence (P05106 27-788): as the sequence (P05106 27-788) above

Row | Structure (SMILES) | IC50 [1] [nM] | IC50 [2] [nM]
1 | CCc1cc(/C=C/C(=O)O)ccc1NC(=O)c1cccc(NC2=NCCCN2)c1 [Example 19, 3-[3-ethyl-4-[[[3-[(1,4,5,6-tetrahydropyrimidin-2-yl)amino]phenyl]carbonyl]amino]phenyl]propenoic acid, trifluoroacetate salt] | 0.53 | 439
2 | CCc1cc(/C=C/C(=O)O)ccc1NC(=O)c1cccc(NC2=NCCN2)c1 [Example 21, 3-[4-[[[3-[(4,5-dihydro-1H-imidazol-2-yl)amino]-phenyl]carbonyl]amino]-3-ethylphenyl]propenoic acid, trifluoroacetate salt] | 0.49 | 125
3 | O=C(O)/C=C/c1ccc(NC(=O)c2cccc(NC3=NCCCN3)c2)c(Cl)c1 [Example 22, 3-[3-chloro-4-[[[3-[(1,4,5,6-tetrahydropyrimidin-2-yl)amino]phenyl]carbonyl]amino]phenyl]propenoic acid, trifluoroacetate salt] | 0.48 | 234
4 | O=C(O)/C=C/c1ccc(NC(=O)c2cccc(NC3=NCCN3)c2)c(Cl)c1 [Example 23, 3-[3-chloro-4-[[[3-[(4,5-dihydro-1H-imidazol-2-yl)amino]-phenyl]carbonyl]amino]phenyl]-2E-propenoic acid, trifluoroacetate salt] | 0.31 | 80.3
5 | Cc1cc(/C=C/C(=O)O)cc(C)c1NC(=O)c1cccc(NC2=NCCCN2)c1 [Example 24, 3-[3,5-dimethyl-4-[[[3-[(1,4,5,6-tetrahydropyrimidin-2-yl)amino]phenyl]carbonyl]amino]phenyl]-2E-propenoic acid, bis(trifluoroacetate salt)] | 4.93 | 8270
6 | Cc1cc(/C=C/C(=O)O)cc(C)c1NC(=O)c1cccc(NC2=NCCN2)c1 [Example 25, 3-[4-[[[3-[(4,5-dihydroimidazol-2-yl)amino]-phenyl]carbonyl]amino]-3,5-dimethylphenyl]-2E-propenoic acid, trifluoroacetate salt] | 2.82 | 1830
7 | Cc1cc(/C=C/C(=O)O)cc(C)c1NC(=O)c1cccc(NC(N)=O)c1 [Example 27, 3-[4-[[[3-[(aminocarbonyl)amino]phenyl]carbonyl]-amino]-3,5-dimethylphenyl]propenoic acid, trifluoroacetate salt] | 204 | > 100000
8 | N=C(N)Nc1cccc(C(=O)Nc2cc(Cl)c(/C=C/C(=O)O)c(Cl)c2)c1 [Example 29, 3-[4-[[[3-[(aminoiminomethyl)amino]phenyl]carbonyl]-amino]-2,6-dichlorophenyl]propenoic acid, dihydrochloride dihydrate] | 1830 | 25400
9 | COc1cc(NC(=O)c2cccc(NC(=N)N)c2)ccc1/C=C/C(=O)O [Example 31, 3-[4-[[[3-(aminoiminomethyl)amino]phenyl]carbonyl]-amino]-2-methoxyphenyl]propenoic acid, trifluoroacetate salt] | 9.66 | 69.1
10 | Cc1cc(NC(=O)c2cccc(NC(=N)N)c2)ccc1/C=C/C(=O)O [Example 33, 3-[4-[[[3-[(aminoiminomethyl)amino]phenyl]carbonyl]-amino]-2-methylphenyl]propenoic acid, trifluoroacetate salt] | 73.3 | 121
11 | N=C(N)Nc1cccc(C(=O)Nc2ccc(/C=C/C(=O)O)c(C(F)(F)F)c2)c1 [Example 35, trifluoroacetate salt] | 122 | 152
12 | N=C(N)Nc1cccc(C(=O)Nc2ccc(/C=C/C(=O)O)c(C(=O)O)c2)c1 [Example 36, 5-[[[3-[(aminoiminomethyl)amino]phenyl]carbonyl]amino]-2-(2-carboxyethenyl)benzoic acid, trifluoroacetate salt] | 1.23 | 9.06
13 | COC(=O)c1cc(NC(=O)c2cccc(NC(=N)N)c2)ccc1/C=C/C(=O)O [Example 37, methyl 5-[[[3-[(aminoiminomethyl)amino]phenyl]carbonyl]amino]-2-(2-carboxyethenyl)benzoate, trifluoroacetate salt] | 32.3 | 80
14 | O=C(O)/C=C/c1ccc(NC(=O)c2cccc(NC3=NCCCN3)c2)cc1C(=O)O [Example 40A, 2-(2-carboxyethenyl)-5-[[[3-[(1,4,5,6-tetrahydropyrimidin-2-yl)amino]phenyl]carbonyl]amino]benzoic acid, trifluoroacetate salt] | 0.45 | 97.2
15 | COC(=O)c1cc(NC(=O)c2cccc(NC3=NCCCN3)c2)ccc1/C=C/C(=O)O [Example 40B, methyl 2-(2-carboxyethenyl)-5-[[[3-[(1,4,5,6-tetrahydropyrimidin-2-yl)amino]phenyl]carbonyl]amino]benzoate, trifluoroacetate salt] | 5.71 | 817
16 | COC(=O)/C=C/c1ccc(NC(=O)c2cccc(NC3=NCCCN3)c2)cc1C(=O)O [Example 40C, 2-[2-(methoxycarbonyl)ethenyl]-5-[[[3-[(1,4,5,6-tetrahydropyrimidin-2-yl)amino]phenyl]carbonyl]amino]benzoic acid, trifluoroacetate salt] | 176 | 20400
